# Test results: publication PMC8151276, “An Integrated Approach toward NanoBRET Tracers for Analysis of GPCR Ligand Engagement” (Molecules, 2021)
# Legend:
# Format in all cases: binding
# HTR1E = target: T1, HTR1E (Homo sapiens, UniProt P28566); assay: NanoBRET screen HiBiT-HTR1E in HEK293
# T1 construct: purchased Promega (in-house HiBiT-GPCR construct library, NanoBRET)
# Method: (§1) Each tracer candidate was screened across the entire library of HiBiT-GPCR constructs using NanoBRET as the detection modality. As depicted in Figure 4A, the specificity of interactions was evaluated through decrease in BRET due to competitive displacement of a bound tracer by excess parental compound. Each tracer was analyzed for binding to each HiBiT-GPCR fusion in the absence and in the presence of competing parental compound. Briefly, HEK293 cells were transfected with HiBiT-GPCR constructs diluted into promoterless DNA to reduce expression and maximize translocation to the cell surface. Each tracer candidate was then screened at concentrations of 1 μM and 0.1 μM across cells expressing these fusions. Cells were treated for 1.5 h with tracer either alone or in the presence of 20 μM competing parental compound (i.e., control). BRET was measured upon addition of purified LgBiT and subsequent complementation with HiBiT genetically fused to a GPCR. The specificity of interactions was assessed through a decrease in BRET signal due to competitive displacement of the bound tracer. To further gauge the robustness of these interactions, the fold response over the control (i.e., BRETtracer/BRETcontrol) was calculated. We chose a 1.5-fold response, which translates to ≥7-fold signal over noise as the minimal threshold required to score an interaction as positive. […]. Below we highlight the screening results obtained for our exemplary fluorescent tracers based on Clozapine, Amitriptyline and AZD1283.
# (§2) HiBiT-GPCR DNA constructs were diluted in 10 mM Tris pH 8 to a final concentration of 0.01 μg/μL, arrayed in 96-well plates and stored at −20 °C. For transfection, HEK293 cells were suspended in Opti-MEM (without phenol red) supplemented with 2% fetal bovine serum (Seradigm) and 100 units/mL penicillin–streptomycin (Gibco) at a final concentration of 220,000 cells/mL and dispensed into white 96-well plates at 90 μL/well. Subsequent transfections and screens were carried using an Agilent Bravo Automated Liquid Handling Platform. First, the 96-well HiBiT DNA arrays were diluted 25-fold in Opti-MEM (without serum or phenol red) to a final concentration of 0.0004 μg/μL and 20 μL of the diluted DNAs were transferred into new 96-well plates. Next, promoterless carrier DNA (1 μg/μL) was diluted 25-fold (0.04 μg/μL) and then dispensed into the diluted arrays at 20 μL/well. Following brief mixing, Viafect transfection reagent (Promega) diluted 16-fold into Opti-MEM was dispensed into the plates at 40 μL/well. After mixing by pipetting, plates were incubated for 10 min on the pipetting station deck. The DNA-transfection reagent complexes were then added to plates containing cells. To facilitate the screen, 10 μL of DNA-transfection reagent complexes were added in duplicates to the top 4 and bottom 4 rows, resulting in two identical 48-well arrays per plate. Plates with transfected cells were incubated for 18–20 h at 37 °C/5% CO2. A screen of each tracer across the entire library using two different concentrations requires duplicate plates of transfected cells. Depending on the number of tracers being screened, transfections can be scaled up using the same ratios. The next day, for each tracer, four 20× screening solutions in tracer dilution buffer (Promega) were prepared: two duplicates at final concentration of 20 μM and two duplicates at a final concentration of 2 μM. A competing unmodified compound was added to one of each duplicate at a final concentration of 400 μM. The four resulting solutions were diluted 4-fold in Opti-MEM without serum or phenol red to generate 5× solutions (5 µM and 0.5 µM tracer +/− 100 μM competing compound). To screen the library, a BioTek MultiFlo FX liquid dispenser was used to dispense 22.5 µL of tracer solution to the top 4 rows and 22.5 µL tracer + competing compound solution to the 4 bottom rows. Plates were briefly mixed on an orbital shaker and incubated for 1.5 h at room temperature. […]
# CXCR6 = target: T2, CXCR6 (Homo sapiens, UniProt O00574); assay: NanoBRET screen HiBiT-CXCR6 in HEK293
# T2 construct: purchased Promega (in-house HiBiT-GPCR construct library, NanoBRET)
# Method: as §1, §2
# AVPR1B = target: T3, AVPR1B (Homo sapiens, UniProt P47901); assay: NanoBRET screen HiBiT-AVPR1B in HEK293
# T3 construct: purchased Promega (in-house HiBiT-GPCR construct library, NanoBRET)
# T3 sequence (P47901 1-424): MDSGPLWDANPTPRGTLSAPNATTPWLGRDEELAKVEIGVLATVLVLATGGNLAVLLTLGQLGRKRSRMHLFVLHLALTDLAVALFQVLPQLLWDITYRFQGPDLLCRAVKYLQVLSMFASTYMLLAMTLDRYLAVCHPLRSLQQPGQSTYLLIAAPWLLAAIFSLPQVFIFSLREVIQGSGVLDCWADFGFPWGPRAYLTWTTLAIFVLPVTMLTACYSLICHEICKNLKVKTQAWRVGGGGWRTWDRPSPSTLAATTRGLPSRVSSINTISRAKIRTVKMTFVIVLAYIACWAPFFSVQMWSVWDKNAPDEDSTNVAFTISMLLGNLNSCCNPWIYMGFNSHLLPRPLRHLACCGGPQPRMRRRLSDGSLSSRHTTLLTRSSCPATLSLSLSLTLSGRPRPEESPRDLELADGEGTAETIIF
# Method: as §1, §2
# [1] = tracer at 0.1μM, listed as amitriptyline-b-2-NB590
# [2] = tracer at 1μM, listed as amitriptyline-b-2-NB590
# T1 sequence (P28566 whole entry): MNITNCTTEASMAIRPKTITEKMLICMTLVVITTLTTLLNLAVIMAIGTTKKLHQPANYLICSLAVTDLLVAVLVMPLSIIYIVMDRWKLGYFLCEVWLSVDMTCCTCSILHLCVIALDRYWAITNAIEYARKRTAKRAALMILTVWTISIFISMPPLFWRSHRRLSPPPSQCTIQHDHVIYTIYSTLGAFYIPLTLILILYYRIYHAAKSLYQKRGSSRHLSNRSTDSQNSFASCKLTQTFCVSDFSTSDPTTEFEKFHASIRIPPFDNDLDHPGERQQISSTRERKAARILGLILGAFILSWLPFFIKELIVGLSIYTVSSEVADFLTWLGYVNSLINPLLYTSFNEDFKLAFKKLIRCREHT
# T2 sequence (O00574 whole entry): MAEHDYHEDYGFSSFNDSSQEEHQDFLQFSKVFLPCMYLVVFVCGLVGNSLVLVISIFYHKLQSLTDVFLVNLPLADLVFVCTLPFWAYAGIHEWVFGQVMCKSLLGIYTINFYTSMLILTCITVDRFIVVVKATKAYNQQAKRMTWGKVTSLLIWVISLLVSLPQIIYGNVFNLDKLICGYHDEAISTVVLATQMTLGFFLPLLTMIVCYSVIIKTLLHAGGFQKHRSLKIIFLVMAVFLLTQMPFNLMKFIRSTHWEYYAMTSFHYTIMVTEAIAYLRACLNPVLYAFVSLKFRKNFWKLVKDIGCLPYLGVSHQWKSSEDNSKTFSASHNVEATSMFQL
smiles,measurement,setting,value
CN1CCN(C2=Nc3cc(Cl)ccc3Nc3ccc(CNC(=O)CCOCCOCCOCCOCCNC(=O)CCc4ccc5n4[B-](F)(F)[N+]4=C(c6ccc[nH]6)C=CC4=C5)cc32)CC1 [Clozapine-b-2-NB590],NanoBRET Fold Response,"HTR1E; HTR1E, 0.1μM tracer",0.99
same,NanoBRET Fold Response,"HTR1E; HTR1E, 1μM tracer",0.97
same,NanoBRET Fold Response,"CXCR6; CXCR6, 0.1μM tracer",1.01
same,NanoBRET Fold Response,"CXCR6; CXCR6, 1μM tracer",1.00
same,NanoBRET Fold Response,"AVPR1B; AVPR1B, 0.1μM tracer",0.98
CN(C)CCC=C1c2ccccc2CCc2ccc(C(=O)NCCNC(=O)CCOCCOCCOCCOCCNC(=O)CCc3ccc4n3[B-](F)(F)[N+]3=C(c5ccc[nH]5)C=CC3=C4)cc21 [Amitriptyline-b-2-NB590],NanoBRET Fold Response,HTR1E; [1],1.01
same,NanoBRET Fold Response,HTR1E; [2],0.95
same,NanoBRET Fold Response,CXCR6; [1],0.95
same,NanoBRET Fold Response,CXCR6; [2],1.02
same,NanoBRET Fold Response,AVPR1B; [1],0.84
same,NanoBRET Fold Response,AVPR1B; [2],1.18
CCOC(=O)c1cc(C#N)c(N2CCC(C(=O)NS(=O)(=O)Cc3ccccc3/C=C/C(=O)NCCNC(=O)CCc3ccc4n3[B-](F)(F)[N+]3=C(c5ccc[nH]5)C=CC3=C4)CC2)nc1C [AZD1283-1-NB590],NanoBRET Fold Response,"HTR1E; HTR1E, 0.1μM",0.94
same,NanoBRET Fold Response,"HTR1E; HTR1E, 1μM",0.96
same,NanoBRET Fold Response,"CXCR6; CXCR6, 0.1μM",0.89
same,NanoBRET Fold Response,"CXCR6; CXCR6, 1μM",0.29
same,NanoBRET Fold Response,"AVPR1B; AVPR1B, 0.1μM",0.97
same,NanoBRET Fold Response,"AVPR1B; AVPR1B, 1μM",1.05
CC(C)N(CC[C@H](c1ccccc1)c1cc(CCNC(=O)CCOCCOCCOCCOCCNC(=O)CCc2ccc3n2[B-](F)(F)[N+]2=C(c4ccc[nH]4)C=CC2=C3)ccc1O)C(C)C [Tolterodine-2-NB590],NanoBRET Fold Response,"HTR1E; HTR1E, tracer 0.1μM",1.27
same,NanoBRET Fold Response,"HTR1E; HTR1E, tracer 1μM",1.10
same,NanoBRET Fold Response,"CXCR6; CXCR6, tracer 0.1μM",0.89
same,NanoBRET Fold Response,"CXCR6; CXCR6, tracer 1μM",0.91
same,NanoBRET Fold Response,"AVPR1B; AVPR1B, tracer 0.1μM",1.42
same,NanoBRET Fold Response,"AVPR1B; AVPR1B, tracer 1μM",0.97
CC(C)N(CC[C@H](c1ccccc1)c1cc(CCNC(=O)c2ccc(CNC(=O)CCc3ccc4n3[B-](F)(F)[N+]3=C(c5ccc[nH]5)C=CC3=C4)cc2)ccc1O)C(C)C [Tolterodine-BZ-NB590],NanoBRET Fold Response,"HTR1E; HTR1E, tracer 0.1μM",1.13
same,NanoBRET Fold Response,"HTR1E; HTR1E, tracer 1μM",1.13
same,NanoBRET Fold Response,"CXCR6; CXCR6, tracer 0.1μM",0.99
same,NanoBRET Fold Response,"CXCR6; CXCR6, tracer 1μM",0.98
same,NanoBRET Fold Response,"AVPR1B; AVPR1B, tracer 0.1μM",0.85
same,NanoBRET Fold Response,"AVPR1B; AVPR1B, tracer 1μM",0.94
O=C(CCOCCOCCOCCOCCNC(=O)CCc1ccc2n1[B-](F)(F)[N+]1=C(c3ccc[nH]3)C=CC1=C2)NCCCN1CCN(C2=Nc3ccccc3Oc3ccc(Cl)cc32)CC1 [Loxapine-a-2-NB590],NanoBRET Fold Response,"HTR1E; HTR1E, tracer 0.1μM",1.01
same,NanoBRET Fold Response,"HTR1E; HTR1E, tracer 1μM",0.96
same,NanoBRET Fold Response,"CXCR6; CXCR6, tracer 0.1μM",1.00
same,NanoBRET Fold Response,"CXCR6; CXCR6, tracer 1μM",1.01
same,NanoBRET Fold Response,"AVPR1B; AVPR1B, tracer 0.1μM",1.06
same,NanoBRET Fold Response,"AVPR1B; AVPR1B, tracer 1μM",0.96
CN1CCN(C2=Nc3cc(Cl)ccc3N(CC(=O)NCCOCCOCCOCCOCCNC(=O)CCc3ccc4n3[B-](F)(F)[N+]3=C(c5ccc[nH]5)C=CC3=C4)c3ccccc32)CC1 [Clozapine-c-2-NB590],NanoBRET Fold Response,"HTR1E; HTR1E, 0.1μM tracer",1.00
same,NanoBRET Fold Response,"HTR1E; HTR1E, 1μM tracer",0.91
same,NanoBRET Fold Response,"CXCR6; CXCR6, 0.1μM tracer",1.01
same,NanoBRET Fold Response,"CXCR6; CXCR6, 1μM tracer",1.04
same,NanoBRET Fold Response,"AVPR1B; AVPR1B, 0.1μM tracer",0.95
same,NanoBRET Fold Response,"AVPR1B; AVPR1B, 1μM tracer",0.84
